Measurements reported in patent publication US6797706B1, “Heterocyclecarboxamide derivative” (Yamanouchi Pharmaceutical Co., Ltd., priority 1999, dated 2004).

Tests used:
Syk = biological target: T1, Syk (Homo sapiens, UniProt P43405); experiment: Syk Tyrosine Kinase Inhibition Test (SPA system); type: biochemical
T1 construct: FLAG tag (8 amino acid residues) (C); made in house; host or cells: Sf-9 insect cells (baculovirus, pFASTBAC HT)
Text: 1. Syk Tyrosine Kinase Inhibition Test
1) Preparation of Syk Protein
Human Syk gene, in the form where a gene of FLAG tag consisting of 8 amino acid residues was linked to the 3′-end, was cloned using RT-PCR method from total RNA prepared from Jurkat cells. The amplified cDNA was incorporated into a vector, pFASTBAC HT, contained in Baculovirus Expression System (GIBCO BRL Inc.). The pFASTBAC HT is designed in such a manner that a His tag consisting of 6 histidine residues can be fused to the 5′-end of Syk. This plasmid DNA was introduced into competent cells, DH10BAC, contained in the Baculovirus Expression System to prepare DNA of recombinant virus. Thereafter, the recombinant virus (culture supernatant) was obtained by transfection of the DNA of recombinant virus into Sf-9 cells (ATCC). […]
SPA (Scintillation Proximity Assay) is a system developed by Amersham making use of a phenomenon in which scintillation occurs when a molecule having a radioactivity is in the proximity of (linked to) the surface of plastic beads containing a scintillant included therein. […]
The plate was sealed, stirred, allowed to stand at room temperature for 15 minutes and then centrifuged at 1,500 rpm for 3 minutes to precipitate the SPA beads. Radioactivity of each well was measured using TOP COUNT (PACKARD), and the tyrosine phosphorylation activity by Syk was calculated.

PCA reaction = experiment: Mouse Passive Cutaneous Anaphylaxis (PCA) Test; type: in vivo; details: Male ICR (CD-1) mice; subcutaneously 30 minutes or orally 2 hours before antigen challenge
Method: 3. Mouse Passive Cutaneous Anaphylaxis (PCA) Test […] After 24 hours of the sensitization, 200 μl of 0.5% Evans blue solution containing 50 μg of DNP-conjugated bovine serum albumin was intravenously administered, and, after 30 minutes, each mouse was sacrificed through exsanguination to isolate both ears. […] The dye in the tissues was extracted with formaride and colorimetrically determined at 620 nm. A value obtained by subtracting the dye content of the left ear from the dye content of the right ear was used as the amount of dye leaked into the tissues by the PCA reaction. The PCA inhibition ratio by the test compound was calculated based on the following equation. In the formula, C: amount of the dye leaked into the tissue at the time of the administration of the vehicle alone, and x: amount of the dye leaked into the tissue at the time of the administration of the test compound. Inhibition ratio (%)={C-X}×100/C

release of serotonin = experiment: Serotonin Release Test; type: cell-based; details: read-out: inhibitory activity as IC50 value against the release of serotonin
Method: 2. Serotonin Release Test
This was carried out in accordance with the method reported by Collado-Escobar et al. (Collado-Escobar, D et al. J. Immunol., 144: 3449-3457 (1990)).

Structure (SMILES) | inhibitory activity against Syk at 1 μM (Syk) | suppression of PCA reaction (PCA reaction) | IC50 (release of serotonin)
CN(C)C(=O)c1cnc(NCCN)nc1Nc1cccc(C(F)(F)F)c1 [2-(2-aminoethylamino)-N,N-dimethyl-4-(3-trifluoromethylanilino)pyrimidine-5-carboxamide] | did not exhibit any inhibitory activity | – | –
COc1cc(Nc2nc(N[C@@H]3CCCC[C@@H]3N)cnc2C(N)=O)cc(OC)c1 (relative stereo) [Example 10, 5-(cis-2-aminocyclohexylamino)-3-(3,5-dimethoxyanilino)pyrazine-2-carboxamide] | – | excellently suppressed PCA reaction | ≤ 0.1 µM
COc1cccc(Nc2nc(N[C@@H]3CCCC[C@@H]3N)cnc2C(N)=O)c1 (relative stereo) [Example 8, 5-(cis-2-aminocyclohexylamino)-3-(3-methoxyanilino)pyrazine-2-carboxamide] | – | excellently suppressed PCA reaction | ≤ 0.1 µM
Cc1cccc(Nc2nc(N[C@@H]3CCCC[C@@H]3N)cnc2C(N)=O)c1 (relative stereo) [Example 2, 5-(cis-2-aminohexylamino)-3-(3-methylanilino)pyrazine-2-carboxamide] | – | excellently suppressed PCA reaction | –
CSc1ccc(Nc2nc(N[C@@H]3CCCC[C@@H]3N)cnc2C(N)=O)cc1 (relative stereo) [Example 11, 5-(cis-2-aminocyclohexylamino)-3-(4-methylsulfanylanilino)pyrazine-2-carboxamide] | – | excellently suppressed PCA reaction | ≤ 0.1 µM
CNC(=O)c1cnc(NCCN)nc1Nc1cccc(C(F)(F)F)c1 [2-(2-aminoethylamino)-N-methyl-4-(3-trifluoromethylanilino)pyrimidine-5-carboxamide] | did not exhibit any inhibitory activity | – | –
Cc1cccc(Nc2nc(N[C@@H]3CCCC[C@@H]3N)ccc2C(N)=O)c1.Cl (relative stereo) [Example 1] | – | excellently suppressed PCA reaction | –
